Experimental data reported in patent US6352980B1, “Estrenes for inducting hypothalamic effects” (Pherin Pharmaceuticals, Inc., priority 1991, dated 2002).
Entries after “also recorded” stand apart in the source; their conditions may differ.

Columns and labels:
Type in all cases: in vivo, human
[1] = system: VNO; assay: Electro-vomeronasogram (EVG) (Example 57); conditions: for EVG response in female subjects: 30 female subjects (ages 20-45), FIG. 6B; for organ response (EVG data): additional tests on 13 estranes; for EVG response to olfactants delivered to the VNO: male and female subjects, 400 fmoles, FIG. 7B; for EVG response in the male VNO: male subjects, FIG. 6A and FIG. 7
Protocol: The following electrophysiological studies were performed in 60 clinically normal human volunteers of both sexes (30 male and 30 female) whose ages ranged from 20 to 45 years. No anesthetics were used, and female subjects were excluded if pregnant.
(§1) The stimulation and recording system consists of a “multifunctional miniprobe” described elsewhere (Monti-Bloch, L. and Grosser, B. l. (1991) “Effect of putative pheromones on the electrical activity of the human vomeronasal organ and olfactory epithelium,” J. Steroid Biochem. Molec. Biol. 39:573-582.). The recording electrode is a 0.3 mm silver ball attached to a small (0.1 mm) silver wire insulated with Teflon© the surface of the electrode is first treated to produce a silver chloride interface, and is then covered with gelatin It is positioned within a small caliber Teflon© catheter (dia=5 mm) such that the tip of the electrode protrudes approximately 2 mm. The Teflon© catheter is 10 cm in length and constitutes the terminal extension for a multichannel delivery system which delivers a continuous air stream carrying discreet pulses of chemosensory stimuli. The air stream first passes into a small chamber and is bubbled through a solution containing either a vomeropherin or an olfactant in a diluent or the diluent alone. A solenoid is used to rapidly redirect the air stream from the chamber to a route which bypasses the chamber. This creates a discreet pulse of stimulant in the air stream. A second, outer Teflon® tube with a diameter of 2 mm surrounds the catheter-electrode assemblage, and its central end is connected to an aspirator that provides continuous suction of 3 ml/s. This concentric arrangement of the outer suction tube allows the emitted chemosensory stimuli to be localized to an area we call a “minifield” (approx. dia=1 mm), and it avoids diffusion of substances either to the area outside the intended stimulation site or into the respiratory system. The entire stimulating and recording assemblage may be positioned either on the neurosensory epithelium within the VNO, or on the surface of the olfactory or respiratory epithelium.
Electro-vomeronasogram (EVG): Recordings are carried out in a quiet room with the subject supine; the multi-functional miniprobe is initially stabilized within the nasal cavity using a nasal retractor placed in the vestibule. Reference and ground electrodes consist of silver discs (8 mm), both of which are positioned on the glabella.
The entrance to the VNO, or vomeronasal pit, is identified by first dilating the nasal aperture and vestibule. A 6× magnifying binocular loupe with halogen illumination is then used to introduce the tip of the Teflon® catheter and recording electrode assemblage into the VNO opening where it is stabilized at an approximate depth of 1 mm within the vomeronasal passage. Optimal placement of the recording electrode is signaled after testing for an adequate depolarization in response to a test substance.
Electrical signals from the recording electrode are fed to a DC amplifier after which they are digitized, computer monitored, and stored. The peak-to-peak amplitude of the signals is measured, and the area under the depolarization wave is integrated, while continuously monitoring the signal both on the computer screen and on a digital oscilloscope. Artifacts produced by respiratory movements are deleted by training the subjects to practice mouth breathing with velopharyngeal closure.
(§2) Chemosensory Stimulants: Olfactory test substances are cineole, and 1-carvone; vomeropherins are A, B, C, E and F. (Vomeropherins were supplied by Pherin Corporation, Menlo Park, Calif.), Samples of vomeropherins In. concentration of 25-800 fmoles are delivered in the continuous air stream for durations from 300 milliseconds to 1 second. Usually, intervals of 3 to 5 minutes separated each series of short test pulses. […]

[2] = system: olfactory epithelium (OE); assay: Electro-olfactgram (EOG) (Example 57); conditions: 20 subjects (10 males, 10 females); 200 fmoles vomeropherins, 400 fmoles olfactants; one second pulses; FIG. 7A
Excerpt: as §1, §2
(§3) Statistical Analysis: EVGs or EOGS, peak-to-peak changes and frequency changes of other parameters were measured and statistically analyzed. The significance of the results was determined by either using paired t-tests or analysis of variance (ANOVA).
Effects of Vomeropherins on the EOG: The summated receptor potential from the olfactory epithelium (OE) was recorded in 20 subjects: 10 males and 10 females. […]

[3] = system: VNO; assay: Cortical activity (EEG) on VNO stimulation with vomeropherins; conditions: for EEG-beta activity / EEG-alpha activity: additional tests on 13 estranes of Chart 1
Protocol: (§4) Cortical evoked activity was induced by VNO stimulation with vomeropherins, and olfactory stimulation with odorants delivered in 300 ms air pulses. It was recorded using standard electroencephalographic (EEG) electrodes placed at positions Cz-A1 and Tz-A1 of the international […] system; the ground electrode was placed on the mastoid process. Electrodermal activity (EDA) was recorded using standard 8 mm silver electrodes in contact with palmar skin of the medial and ring fingers, respeCtively, through a conductive gel interface. Skin temperature (ST) was recorded by a small (1.0 mm) thermistor probe placed in the right ear lobe. Peripheral arterial pulse (PAP) was monitored with a plethysmograph attached to the tip of the index finger. Respiratory frequency (RF) was measured with an adjustable strain gauge placed around the lower thorax. All electrical signals were DC amplified, digitized (MP-100, Biopac Systems) and continuously monitored utilizing a computer.
as §3
[…] […] Synchronization of the EEG was sustained for 1.5 to 2.7 minutes after application of a single pulse of active substance.

[4] = system: VNO; assay: Electrodermal activity (EDA) on vomeropherin stimulation of the VNO; conditions: n=30, p<0.01; for electrodermal activity (EDA): female subjects
Protocol: as §4, §3
Reflex Effects of Vomeropherins: Studies were conducted to determine the central nervous system (CNS) reflex responses to vomeropherin stimulation of the VNO. The sexually dimorphic local responses induced by vomeropherins (FIGS. 6A and B) were mirrored in the autonomic response of male & female subjects. […] In female subjects.

[5] = system: VNO; assay: Skin temperature (ST) on vomeropherin stimulation of the VNO
Protocol: as §4, §3
In female subjects vomeropherins produced changes in EDA and ST with a greater standard deviation than in males.

[6] = system: VNO; assay: Autonomic responses to Estrene stimulation of the VNO (Example 54); conditions: 40 male subjects, 1 second pulse
Protocol: Various autonomic parameters were monitored while 1,3,5(10),16-Estratetraen-3-yl-acetate was administered to 40 male subjects using the procedure described in Example 20. Propylene glycol was also administered as a control. The ligand was administered as a 1 second pulse. The change in autonomic function was first noted within 2 seconds and lasted for up to 45 seconds.

[7] = 30 female subjects, p<0.01 compared to A and C, FIG. 6H
[8] = females, single pulse 200 fmoles, FIG. 6F

C[C@@]12C=CC[C@H]1[C@@H]1CCC3=C[C@H](O)CC[C@]3(C)[C@H]1CC2 [E, Androsta-4,16-dien-3α-ol]
EVG response in female subjects ([1]; 100 fmoles): does not stimulate the VNO in female subjects | EOG local response of the OE [2]: stronger olfactory effect than does F; also recorded: significant (p<0.01) local response

C[C@@]12C=CC[C@H]1[C@@H]1CCC3=CC(=O)CC[C@]3(O)[C@H]1CC2 [E7/N1, 10-HYDROXYESTRA-4,16-DIEN-3-ONE]
organ response (EVG data) ([1]; men, FIG. 21A): excellent organ response | organ response (EVG data) ([1]; women, FIG. 20A): excellent organ response | EEG-beta activity ([3]; men, FIGS. 22-34 A): high EEG-betain men | EEG-alpha activity ([3]; women, FIGS. 22-34 B): best EEG-alpha activity in women; also recorded: high EEG-alpha in women

COC1=CCC2=C(CC[C@@H]3[C@@H]2CC[C@]2(C)C=CC[C@@H]32)C1 [E8/N1, 3-METHOXYESTRA-2,5(10),16-TRIENE]
EEG-beta activity ([3]; men, FIGS. 22-34 A): best EEG-beta activity in men

C[C@@]12C=CC[C@H]1[C@@H]1C[C@@H](O)c3cc(O)ccc3[C@H]1CC2 [E12/N1, ESTRA-1,3,5(10),16-TETRAEN-3,6β-DIOL]
EEG-alpha activity ([3]; men, FIGS. 22-34 A): best EEG-alpha activity in men

CC12CCC(CC1)C(C)(C)O2 [cineole]
EVG response to olfactants delivered to the VNO [1]: only a minor local response in the VNO; also recorded: do not induce a significant EVG response | EOG local response of the OE [2]: strong response in both men and women; also recorded: significant (p<0.01) local response

C[C@@]12C=CC[C@H]1[C@@H]1CCC3=C[C@@H](O)CC[C@]3(C)[C@H]1CC2 [F, Androsta-4,16-dien-3β-ol, reference compound]
EVG response in female subjects ([1]; 100 fmoles): produced the most significant differences within the group | EVG response in the male VNO ([1]; 100 fmoles): significantly reduced responses | electrodermal activity (EDA) [4]: greater decrease in EDA than A or C | skin temperature (ST) [5, 7]: significant increase in skin temperature | alpha cortical activity [3, 8]: increased alpha cortical

C[C@@]12C=CC[C@H]1[C@@H]1CCC3=CC(=O)CC[C@]3(C)[C@H]1CC2 [B, Androsta-4,16-dien-3-one, reference compound]
EVG response in the male VNO ([1]; 100 fmoles): significantly reduced responses | EOG local response of the OE [2]: only vomeropherin having significant effect in the OE; also recorded: significant (p<0.01) local response | electrodermal activity (EDA) [4]: greater decrease in EDA than A or C | skin temperature (ST) [5, 7]: significant increase in skin temperature | alpha cortical activity [3, 8]: increased alpha cortical

C=C(C)C1CC=C(C)C(=O)C1 (centres unmarked) [1-carvone]
EVG response to olfactants delivered to the VNO [1]: only a minor local response in the VNO; also recorded: do not induce a significant EVG response | EOG local response of the OE [2]: strong response in both men and women; also recorded: significant (p<0.01) local response

CC(=O)Oc1ccc2c(c1)CC[C@@H]1[C@@H]2CC[C@]2(C)C=CC[C@@H]12 [A, 1,3,5(10),16-Estratetraen-3-yl acetate]
duration of change in autonomic function [6]: up to 45 seconds | time at which change in autonomic function was first noted [6]: ≤ 2 s | integrated receptor potential in the VNO ([6]; compared to propylene glycol control, FIG. 4A): significant change | galvanic skin response ([6]; compared to propylene glycol control, FIG. 4B): significant change | skin temperature ([6]; compared to propylene glycol control, FIG. 4C): significant change | EVG response in female subjects ([1]; 100 fmoles): small effect that was significantly different from F | EVG average response (mean) ([1]; male subjects (ages 20 to 38), 100 fmoles, 1 second pulses, FIG. 6A): 11.4 mV | skin resistance (electrodermal activity, EDA) ([4]; male subjects, FIG. 6C): decreased skin resistance | skin temperature (ST) ([5]; 30 male subjects, p<0.01, FIG. 6G): significant increase in skin temperature | alpha cortical activity ([3]; males, 200 fmoles, air pulses 300 ms to 1 sec, FIG. 6E): significantly increased alpha cortical activity; also recorded: strongest effect
